pIC50: −log10 of the molar value.
Legend:
[1] = molecular target: p38 MAPKα isoform (MAPK14) (Homo sapiens (Human), UniProt Q16539); assay: p38 MAPKα enzyme inhibition (FRET, Z-LYTE, Method 2); format: biochemical
Method: (§1) The enzyme inhibitory activities of compounds disclosed herein are determined by FRET using synthetic peptides labelled with both donor and acceptor fluorophores (Z-LYTE, Invitrogen Ltd., Paisley, UK).
The following two assay variants can be used for determination of p38 MAPKα inhibition.
The inhibitory activities of test compounds against the p38 MAPKα isoform (MAPK14: Invitrogen), are evaluated indirectly by determining the level of activation/phosphorylation of the down-stream molecule, MAPKAP-K2. The p38 MAPKα protein (80 ng/mL, 2.5 μL) is mixed with the test compound (2.5 μL of either 4 μg/mL, 0.4 μg/mL, 0.04 μg/mL or 0.004 μg/mL) for 2 hr at RT. […] The mixture is incubated for 1 hr at RT. Development reagent (protease, 5 μL) is added for 1 hr prior to detection in a fluorescence microplate reader (Varioskan® Flash, ThermoFisher Scientific).
This method follows the same steps as Method 1 above, but utilises a higher concentration of the p38 MAPKα protein (2.5 μL of 200 ng/mL protein instead of 2.5 μL of 80 ng/mL protein) for mixing with the test compound.
(§2) In all cases, the site-specific protease cleaves non-phosphorylated peptide only and eliminates the FRET signal. Phosphorylation levels of each reaction are calculated using the ratio of coumarin emission (donor) over fluorescein emission (acceptor), for which high ratios indicate high phosphorylation and low ratios indicate low phosphorylation levels. The percentage inhibition of each reaction is calculated relative to non-inhibited control and the 50% inhibitory concentration (IC50 value) is then calculated from the concentration-response curve.

c-Src = c-Src (Homo sapiens (Human), UniProt P12931); assay: c-Src enzyme inhibition (FRET, Z-LYTE); format: biochemical
Method: as §1
(§3) The inhibitory activities of compounds of the invention against c-Src and Syk enzymes (Invitrogen), are evaluated in a similar fashion to that described hereinabove. The relevant enzyme (3000 ng/mL or 2000 ng/mL respectively, 2.5 μL) is incubated with the test compound (either 4 μg/mL, 0.4 μg/mL, 0.04 μg/mL, or 0.004 μg/mL, 2.5 μL each) for 2 hr at RT. The FRET peptides (8 μM, 2.5 μL), and appropriate ATP solutions (2.5 μL, 800 μM for c-Src, and 60 μM ATP for Syk) are then added to the enzymes/compound mixtures and incubated for 1 hr. Development reagent (protease, 5 μL) is added for 1 hr prior to detection in a fluorescence microplate reader (Varioskan® Flash, ThermoFisher Scientific).
as §2

Syk = Syk (Homo sapiens (Human), UniProt P43405); assay: Syk enzyme inhibition (FRET, Z-LYTE); format: biochemical
Method: as §1, §3, §2

GSK 3α = GSK 3α (Homo sapiens (Human), UniProt P49840); assay: GSK 3α enzyme inhibition (FRET, Z-LYTE, Method 2); format: biochemical; details: read-out: IC50 Values for Enzyme Inhibition, GSK3α
How it was run: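 Human GSK3α (500 ng/mL) preincubated with compound (4, 0.4, 0.04 or 0.004 μg/mL) at RT for 2 h (Method 1) or 105 min (Method 2). Then FRET peptide (8 μM) and ATP (40 μM) added for 1 h, followed by protease development for 1 h. IC50 from the coumarin/fluorescein emission ratio relative to uninhibited control.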

PBMCs [2] = assay: LPS-induced IL-8 release in PBMC cells (assay b); format: cell-based, human; details: Homo sapiens, PBMC; LPS-stimulated PBMCs; read-out: IC50 Values for Inhibition of Cytokine Release, PBMCs IL-8
How it was run: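 Cytokines (TNFα, IL-8) in supernatants were quantified by sandwich ELISA after a 24 h challenge with 1 ng/mL E. coli LPS at 37° C, 5% CO2. Healthy-donor PBMCs had been exposed to compound for 2 h beforehand. IC50 values were fitted from the concentration-response curves.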

PBMCs [3] = assay: IL-2 release in CD3/CD28 stimulated PBMC cells (assay c); format: cell-based; details: Homo sapiens, read-out: IC50 Values for Inhibition of Cytokine Release, PBMCs IL-2
Method: (§4) PBMCs from healthy subjects are separated from whole blood using a density gradient (Lymphoprep, Axis-Shield Healthcare). Cells are added to a 96 well plate pre-coated with a mixture of CD3/CD28 monoclonal antibodies (0.3 μg/mL eBioscience and 3 μg/mL BD Pharmingen respectively). Compound at the desired concentration is then added to the wells and the plate left for 3 days under normal tissue culture conditions. Supernatants are harvested and IL-2 and IFN gamma release determined by Sandwich ELISA (Duo-set, R&D System). The IC50 is determined from the dose response curve.

PBMCs [4] = assay: IFN gamma release in CD3/CD28 stimulated PBMC cells (assay c); format: cell-based; details: Homo sapiens, read-out: IC50 Values for Inhibition of Cytokine Release, PBMCs IFNγ
Method: as §4

d-U937 cells = assay: Accumulation of β catenin in d-U937 cells (assay m); format: cell-based, human; details: percentage relative to Reference Compound at 1 μg/mL
How it was run: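 Read-out: colourimetric cell-based immunoassay for endogenous β-catenin (OD450 minus 655 reference), normalised to crystal violet absorbance at 595 nm. Test compound or vehicle was applied for 18 hr to U937 monocytes first differentiated with PMA (100 ng/mL) for 48–72 hr.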

PBMCs [5] = assay: Cell mitosis assay in PBMCs (assay g); format: cell-based; details: Homo sapiens, PBMC, test compound 5 μg/mL
Method: Peripheral blood mononucleocytes (PBMCs) from healthy subjects are separated from whole blood (Quintiles, London, UK) using a density gradient (Histopaque®-1077, Sigma-Aldrich, Poole, UK). The PBMCs (3 million cells per sample) are subsequently treated with 2% PHA (phytohaemagglutinin, Sigma-Aldrich, Poole, UK) for 48 hr, followed by a 20 hr exposure to varying concentrations of test compounds. At 2 hr before collection, PBMCs are treated with demecolcine (0.1 μg/mL; Invitrogen, Paisley, UK) to arrest cells in metaphase. To observe mitotic cells, PBMCs are permeabilised and fixed by adding Intraprep (50 μL; Beckman Coulter, France), and stained with anti-phospho-histone 3 (0.26 ng/L; #9701; Cell Signalling, Danvers, Mass.) and propidium iodide (1 mg/mL; Sigma-Aldrich, Poole, UK) as previously described (Muehlbauer P. A. and Schuler M. J., Mutation Research, 2003, 537:117-130). Fluorescence is observed using an ATTUNE flow cytometer (Invitrogen, Paisley, UK), gating for lymphocytes. The percentage inhibition of mitosis is calculated for each treatment relative to vehicle (0.5% DMSO) treatment.

Sequence of p38 MAPKα isoform (MAPK14) (Q16539 whole entry, canonical isoform): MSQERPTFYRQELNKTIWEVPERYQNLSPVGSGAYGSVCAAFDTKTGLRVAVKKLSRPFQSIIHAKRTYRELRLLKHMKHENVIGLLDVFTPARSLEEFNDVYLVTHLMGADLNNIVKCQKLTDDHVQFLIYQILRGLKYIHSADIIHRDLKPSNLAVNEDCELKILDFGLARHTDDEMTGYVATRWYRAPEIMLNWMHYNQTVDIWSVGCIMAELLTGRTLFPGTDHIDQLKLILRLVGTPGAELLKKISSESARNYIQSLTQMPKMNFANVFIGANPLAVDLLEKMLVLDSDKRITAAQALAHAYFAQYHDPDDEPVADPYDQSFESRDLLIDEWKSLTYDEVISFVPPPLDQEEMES
Sequence of c-Src (P12931 whole entry, looked up): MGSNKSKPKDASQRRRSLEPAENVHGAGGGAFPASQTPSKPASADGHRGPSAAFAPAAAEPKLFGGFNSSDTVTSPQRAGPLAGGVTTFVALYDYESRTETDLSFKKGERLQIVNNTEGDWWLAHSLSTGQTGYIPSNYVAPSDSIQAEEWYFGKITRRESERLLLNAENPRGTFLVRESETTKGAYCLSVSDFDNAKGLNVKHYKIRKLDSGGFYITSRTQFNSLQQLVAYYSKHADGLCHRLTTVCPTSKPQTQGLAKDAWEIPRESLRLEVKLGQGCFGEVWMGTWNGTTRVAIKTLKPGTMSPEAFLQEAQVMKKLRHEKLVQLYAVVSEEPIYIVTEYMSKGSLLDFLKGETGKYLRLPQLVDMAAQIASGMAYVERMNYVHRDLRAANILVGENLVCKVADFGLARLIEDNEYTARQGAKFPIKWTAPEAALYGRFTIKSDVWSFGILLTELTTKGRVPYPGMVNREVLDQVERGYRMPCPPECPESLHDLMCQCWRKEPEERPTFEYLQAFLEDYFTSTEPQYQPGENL
Sequence of GSK 3α (P49840 whole entry): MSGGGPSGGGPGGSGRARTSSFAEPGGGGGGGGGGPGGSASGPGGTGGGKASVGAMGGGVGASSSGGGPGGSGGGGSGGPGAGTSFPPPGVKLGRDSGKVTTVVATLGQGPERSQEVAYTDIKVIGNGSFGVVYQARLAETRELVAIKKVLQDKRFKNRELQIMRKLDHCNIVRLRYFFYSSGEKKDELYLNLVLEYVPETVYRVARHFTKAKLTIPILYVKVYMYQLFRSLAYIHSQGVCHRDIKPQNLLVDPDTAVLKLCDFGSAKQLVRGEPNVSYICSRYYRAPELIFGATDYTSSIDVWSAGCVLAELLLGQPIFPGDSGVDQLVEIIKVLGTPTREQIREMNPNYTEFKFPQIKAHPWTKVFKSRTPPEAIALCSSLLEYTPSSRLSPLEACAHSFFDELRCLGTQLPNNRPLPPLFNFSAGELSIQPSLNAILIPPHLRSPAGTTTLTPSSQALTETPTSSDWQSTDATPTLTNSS

pIC50 [1] | pIC50 (c-Src) | pIC50 (Syk) | pIC50 (GSK 3α) | Structure (SMILES) | pIC50 (PBMCs [2]) | pIC50 (PBMCs [3]) | pIC50 (PBMCs [4]) | % β-catenin induction (d-U937 cells; test compound 1 μg/mL) | % β-catenin induction (d-U937 cells; test compound 5 μg/mL) | % β-catenin induction (d-U937 cells; test compound 10 μg/mL) | inhibition at 5 µg/mL (PBMCs [5])
6.44 | 6.92 | 6.26 | 5.54 | COc1c(NC(=O)Nc2ccc(Oc3ccnc(Nc4ccccc4)c3)c3ccccc23)cc(C(C)(C)C)cc1OCP(C)(C)=O [15(e), 1-(5-(tert-butyl)-3-((dimethylphosphoryl)methoxy)-2-methoxyphenyl)-3-(4-((2-(phenylamino)pyridin-4-yl)oxy)naphthalen-1-yl)urea] | 8.33 | 7.59 | 7.22 | 2.0% | 20.5% | 32.5% | 
 | 7.36 | 6.60 | 6.00 | COc1cccc(Nc2cc(Oc3ccc(NC(=O)Nc4cc(C(C)(C)C)cc(CC(N)=O)c4OC)c(Cl)c3Cl)ccn2)c1 [38(af), 2-(5-(tert-Butyl)-3-(3-(2,3-dichloro-4-((2-((3-methoxyphenyl)amino)pyridin-4-yl)oxy)phenyl)ureido)-2-methoxyphenyl)acetamide] | 8.59 | 7.20 | 8.35 |  |  |  | 89.3%
 |  |  | 6.05 | COc1cc(Nc2cc(Oc3ccc(NC(=O)Nc4cc(C(C)(C)C)cc(CC(N)=O)c4OC)c4ccccc34)ccn2)cc(S(N)(=O)=O)c1 [38(ai), 2-(5-(tert-Butyl)-2-methoxy-3-(3-(4-((2-((3-methoxy-5-sulfamoylphenyl)amino)pyridin-4-yl)oxy)naphthalen-1-yl)ureido)phenyl)acetamide] | 8.80 | 7.04 | 7.95 |  |  |  | 67.6%
 |  |  | 5.49 | COc1cc(Nc2cc(Oc3ccc(NC(=O)Nc4cc(C(C)(C)C)cc(P(C)(C)=O)c4OC)c4ccccc34)ccn2)ccc1C(=O)NCCN1CCOCC1 [38(ao), 4-((4-((4-(3-(5-(tert-Butyl)-3-(dimethylphosphoryl)-2-methoxyphenyl)ureido)naphthalen-1-yl)oxy)pyridin-2-yl)amino)-2-methoxy-N-(2-morpholinoethyl)benzamide] | 8.57 | 6.66 | 7.80 |  |  |  | 78%
 | 6.44 | < 5.82 | < 4.82 | COc1c(CC(N)=O)cc(C(C)(C)C)cc1NC(=O)Nc1ccc(Oc2ccnc(Nc3cccc(OC(F)F)c3)c2)c2ccccc12 [38(s), 2-(5-(tert-Butyl)-3-(3-(4-((2-((3-(difluoromethoxy)phenyl)amino)pyridin-4-yl)oxy)naphthalen-1-yl)ureido)-2-methoxyphenyl)acetamide] | 8.28 | 6.72 | 7.57 |  |  |  | 
 |  |  | 6.08 | COc1cc(Nc2cc(Oc3ccc(NC(=O)Nc4cc(C(C)(C)C)cc(CNC(C)=O)c4OC)c4ccccc34)ccn2)cc(C(=O)NCCN2CCOCC2)c1 [38(t), 3-((4-((4-(3-(3-(Acetamidomethyl)-5-(tert-butyl)-2-methoxyphenyl)ureido)naphthalen-1-yl)oxy)pyridin-2-yl)amino)-5-methoxy-N-(2-morpholinoethyl)benzamide] | 9.15 | 6.54 | 8.13 |  |  |  | 77.3%
 |  |  | 5.94 | COc1cc(Nc2cc(Oc3ccc(NC(=O)Nc4cc(C(C)(C)C)cc(CP(C)(C)=O)c4OC)c4ccccc34)ccn2)cc(C(=O)NCCN2CCOCC2)c1 [38(v), 3-((4-((4-(3-(5-(tert-Butyl)-3-((dimethylphosphoryl)methyl)-2-methoxyphenyl)ureido)-naphthalen-1-yl)oxy)pyridin-2-yl)amino)-5-methoxy-N-(2-morpholinoethyl)benzamide] | 8.77 | 7.07 | 8.09 |  |  |  | 
7.47 | 8.05 | 7.52 | 6.48 | COCCOCCOCCOc1cc(Nc2nccc(Oc3ccc(NC(=O)Nc4cc(C(C)(C)C)cc(P(C)(C)=O)c4OC)c4ccccc34)n2)cc(OC)c1 [Example 1, 1-(5-(tert-Butyl)-3-(dimethylphosphoryl)-2-methoxyphenyl)-3-(4-((2-((3-methoxy-5-(2-(2-(2-methoxyethoxy)ethoxy)ethoxy)phenyl)amino)pyrimidin-4-yl)oxy)naphthalen-1-yl)urea] | 8.96 | 7.21 | 8.42 |  |  |  | 
6.66 | 7.82 | 7.16 | 5.88 | COc1cc(Nc2nccc(Oc3ccc(NC(=O)Nc4cc(C(C)(C)C)cc(P(C)(C)=O)c4OC)c4ccccc34)n2)cc(OC)c1 [Example 18, 1-(5-(tert-Butyl)-3-(dimethylphosphoryl)-2-methoxyphenyl)-3-(4-((2-((3,5-dimethoxyphenyl)-amino)pyrimidin-4-yl)oxy)naphthalen-1-yl)urea] | 8.68 | 7.71 | 8.09 | 6.5% | 35.5% | 39.0% | 
 | 7.40 | 6.10 | 5.49 | COc1c(CNC(C)=O)cc(C(C)(C)C)cc1NC(=O)Nc1ccc(Oc2ccnc(Nc3cc(C#N)cc(OCCN4CCOCC4)c3)c2)c2ccccc12 [Example 50, N-(5-(tert-Butyl)-3-(3-(4-((2-((3-cyano-5-(2-morpholinoethoxy)phenyl)amino)pyridin-4-yl)oxy)naphthalen-1-yl)ureido)-2-methoxybenzyl)acetamide] | 8.92 | 7.52 | 9.05 |  |  |  | 57.7%

Source: patent publication US9890185B2, “Urea derivatives useful as kinase inhibitors” (Respivert Limited, priority 2013, dated 2018)
